This is an account of results in ChEMBL document CHEMBL1201862, “PubChem BioAssay data set” (2004).

Molecules are shown by their SMILES. Activity calls are given as the source filed them. A value given as a limit tells only on which side of the number the result lay.

For assay [1], the system named is HEK293. As to the kind of experiment: cells. As to conditions: Homo sapiens.
Assay [2] concerns HEK293. As to the kind of experiment: cells. To be noted: Homo sapiens. The source holds these as a separate data set.
Assay [3] can be described thus: viability loss of HMLE_sh_eGFP cells – cell-based, luminescence, counter-screen for HMLE_sh_ECad selective toxicity project, dose response (AID 463074).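 Also: HMLE human mammary epithelial cells expressing control shRNA against eGFP.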 The class given is functional, Homo sapiens.
Assay [4] can be described thus: Luminescence Cell-Based Dose Retest to Confirm Inhibitors of Cancer Stem Cells. [Related pubchem assays (depositor defined):AID2717, AID2721]. The assay is classed as functional. To be noted: Homo sapiens.
The target in assay [5] is T1, E3 ubiquitin-protein ligase XIAP (Homo sapiens, UniProt P98170). Nature of the assay: Counter Screen using XIAP-Bir3 for Chemical Antagonists of Bir1/2 domains of IAP-family anti-apoptotic proteins. [Related pubchem assays (depositor defined):AID1018, AID1449, AID1514, AID1638, AID1749, AID1750, AID488957, AID488963]. In general terms: A counterscreen serves to expose hits that act by an unwanted route or on another target.
T1 sequence (P98170 whole entry): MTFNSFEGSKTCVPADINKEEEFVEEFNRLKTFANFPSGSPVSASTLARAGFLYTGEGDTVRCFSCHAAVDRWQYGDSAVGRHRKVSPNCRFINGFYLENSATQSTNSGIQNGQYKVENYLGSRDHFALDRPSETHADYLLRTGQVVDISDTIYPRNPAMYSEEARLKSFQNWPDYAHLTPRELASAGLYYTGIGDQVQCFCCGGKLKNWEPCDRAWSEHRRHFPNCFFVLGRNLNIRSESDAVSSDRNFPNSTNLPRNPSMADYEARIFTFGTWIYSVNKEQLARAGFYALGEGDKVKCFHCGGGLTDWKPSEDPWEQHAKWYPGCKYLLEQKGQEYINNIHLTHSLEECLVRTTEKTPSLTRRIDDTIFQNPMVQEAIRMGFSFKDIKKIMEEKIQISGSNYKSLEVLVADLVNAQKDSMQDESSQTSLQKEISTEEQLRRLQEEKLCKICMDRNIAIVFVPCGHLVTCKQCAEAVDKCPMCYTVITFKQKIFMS

In assay [6] the target is T1, E3 ubiquitin-protein ligase XIAP. Nature of the assay: small molecules displacing peptide from XIAP – biochemical, IAP family, fluorescence polarization (AID 1018). The class given is functional. Background: Polarisation of emitted light reports the rotation of a fluorescent probe.
Another assay has as its target Ion channel NompC (Danio rerio, UniProt Q7T1G6). As to the kind of experiment: Dose response cell-based high-throughput screening assay for agonists of the transient receptor potential channel N1 (TRPN1). [Related pubchem assays (depositor defined):AID1424, AID1448]. The class given is functional.
For another assay, the target named is T2, Mucolipin-3 (Homo sapiens, UniProt Q8TDD5).
T2 sequence (Q8TDD5 whole entry): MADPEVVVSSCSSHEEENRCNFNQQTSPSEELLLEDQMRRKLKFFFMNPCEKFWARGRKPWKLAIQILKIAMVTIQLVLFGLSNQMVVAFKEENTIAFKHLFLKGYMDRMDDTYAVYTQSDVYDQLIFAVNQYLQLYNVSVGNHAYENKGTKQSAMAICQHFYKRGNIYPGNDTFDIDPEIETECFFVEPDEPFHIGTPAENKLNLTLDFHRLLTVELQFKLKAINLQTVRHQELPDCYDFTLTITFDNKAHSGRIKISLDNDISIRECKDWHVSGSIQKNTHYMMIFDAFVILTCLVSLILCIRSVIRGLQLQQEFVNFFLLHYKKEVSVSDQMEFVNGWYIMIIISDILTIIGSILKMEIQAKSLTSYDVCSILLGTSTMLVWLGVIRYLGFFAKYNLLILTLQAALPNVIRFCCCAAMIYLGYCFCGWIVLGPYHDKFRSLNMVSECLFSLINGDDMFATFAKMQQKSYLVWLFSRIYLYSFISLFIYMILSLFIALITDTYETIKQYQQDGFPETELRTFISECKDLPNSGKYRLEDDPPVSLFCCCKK
As to the kind of experiment: Fluorescence counterscreen assay for […] agonists: dose response cell-based high-throughput screening assay to identify agonists of the transient receptor potential channel ML3 (TRPML3). [Related pubchem assays: 1424, 1448 ]. The assay is classed as functional.

Assay [7] deals with T3, Corticotropin-releasing factor receptor 2/Corticotropin-releasing factor-binding protein (Homo sapiens, UniProt P24387+Q13324).
T3 sequence (Q13324 whole entry): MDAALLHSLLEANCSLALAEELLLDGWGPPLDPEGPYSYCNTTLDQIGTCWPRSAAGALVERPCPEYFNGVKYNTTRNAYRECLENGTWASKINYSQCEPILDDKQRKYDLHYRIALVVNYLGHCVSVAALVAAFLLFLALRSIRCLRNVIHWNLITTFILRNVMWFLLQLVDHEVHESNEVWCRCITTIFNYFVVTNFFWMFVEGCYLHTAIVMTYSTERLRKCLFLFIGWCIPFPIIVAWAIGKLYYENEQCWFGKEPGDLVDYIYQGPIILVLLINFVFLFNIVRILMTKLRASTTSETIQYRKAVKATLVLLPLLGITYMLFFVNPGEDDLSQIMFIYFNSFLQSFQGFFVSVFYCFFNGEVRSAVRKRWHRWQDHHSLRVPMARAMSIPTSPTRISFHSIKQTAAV
T3 sequence (P24387 whole entry): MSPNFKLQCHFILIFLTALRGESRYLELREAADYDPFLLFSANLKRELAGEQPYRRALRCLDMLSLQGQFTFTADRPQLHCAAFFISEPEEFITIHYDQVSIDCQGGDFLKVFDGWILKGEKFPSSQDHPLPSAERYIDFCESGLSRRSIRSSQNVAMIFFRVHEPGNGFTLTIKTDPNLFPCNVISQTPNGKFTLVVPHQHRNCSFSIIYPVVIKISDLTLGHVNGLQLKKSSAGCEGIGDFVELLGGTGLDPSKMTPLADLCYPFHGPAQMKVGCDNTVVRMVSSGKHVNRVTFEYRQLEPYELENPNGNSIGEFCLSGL
Nature of the assay: activators of CRF receptor 2 with binding protein – uHTS hits, confirmation (AID 602473). The assay is classed as functional. As to conditions: read-out: EC50_Mean.

Assay [8] in a line: viability of uninfected HEp-2 cells – cell-based, HTS, cytotoxicity control for RSV inhibitor project, dose response (AID 2410). The assay is classed as functional. To be noted: human respiratory syncytial virus.
In another assay the test system is H4. As to the kind of experiment: Luminescence Cell-Based Dose Response HTS to Identify Activators of 5'UTR Stem-Loop Driven Prion Protein mRNA Translation in H4 Neuroglioblastoma Cells. [Related pubchem assays: 1829 (Project Summary), 1814 (Primary HTS)]. The class given is functional. To be noted: Homo sapiens.
Assay [9] can be described thus: Luminescence Cell-Based Dose Response HTS to Identify Activators of Luciferase Translation or Activity in H4 […] Cells. [Related pubchem assays: 1829 (Project Summary), 1814 (Primary HTS)]. The class given is functional.
The next assay deals with Escherichia coli. Nature of the assay: microbe, parasite or virus in culture.
Assay [10] deals with 5-hydroxytryptamine receptor 5A (Homo sapiens, UniProt P47898). As to the kind of experiment: Counterscreen for agonists of OPRM1-OPRD1 heterodimerization: luminescence-based cell-based high throughput dose response assay to identify agonists of 5-hydroxytryptamine (serotonin) 5A receptor (HTR5A). [Related pubchem assays (depositor defined):AID504326, AID504355, AID504692, AID504904, AID504905]. The assay is classed as functional.
Sequence of 5-hydroxytryptamine receptor 5A (P47898 whole entry): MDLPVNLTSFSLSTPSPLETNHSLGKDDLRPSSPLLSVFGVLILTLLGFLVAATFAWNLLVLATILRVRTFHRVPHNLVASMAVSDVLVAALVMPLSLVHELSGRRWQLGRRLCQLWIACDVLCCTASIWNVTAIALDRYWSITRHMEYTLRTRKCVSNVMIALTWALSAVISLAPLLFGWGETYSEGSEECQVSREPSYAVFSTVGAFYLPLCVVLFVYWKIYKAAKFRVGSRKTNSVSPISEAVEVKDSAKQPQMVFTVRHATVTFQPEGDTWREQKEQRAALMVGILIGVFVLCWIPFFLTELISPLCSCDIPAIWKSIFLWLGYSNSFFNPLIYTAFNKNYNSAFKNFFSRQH

In the next assay the target is Mu-type opioid receptor (Homo sapiens, UniProt P35372). As to the kind of experiment: Counterscreen for agonists of heterodimerization of the mu 1 (OPRM1) and delta 1 (OPRD1) opioid receptors: Luminescence-based cell-based high throughput dose response assay to identify agonists of OPRM1 homodimerization. The class given is functional.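 Also: U2OS cells expressing OPRM1 and beta-arrestin as split beta-galactosidase partners.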
Sequence of Mu-type opioid receptor (P35372 whole entry): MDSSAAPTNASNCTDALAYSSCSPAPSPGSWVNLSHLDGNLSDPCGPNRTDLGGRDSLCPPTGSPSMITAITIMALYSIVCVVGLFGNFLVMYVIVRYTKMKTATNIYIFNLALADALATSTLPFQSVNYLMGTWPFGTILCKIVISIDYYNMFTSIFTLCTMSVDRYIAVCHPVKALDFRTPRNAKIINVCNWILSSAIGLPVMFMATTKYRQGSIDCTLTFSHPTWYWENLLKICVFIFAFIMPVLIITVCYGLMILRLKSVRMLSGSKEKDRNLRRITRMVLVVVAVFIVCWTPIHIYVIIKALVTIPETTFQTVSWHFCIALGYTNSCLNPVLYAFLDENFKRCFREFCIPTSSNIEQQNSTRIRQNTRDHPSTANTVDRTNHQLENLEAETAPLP
Assay [11] has as its target Voltage-dependent T-type calcium channel subunit alpha-1H (Homo sapiens, UniProt O95180). The class given is functional.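 Also: channel activity triggered by adding a high calcium stimulation buffer.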
The target in assay [12] is Delta-type opioid receptor (Homo sapiens, UniProt P41143). Nature of the assay: Counterscreen for agonists of heterodimerization of the mu 1 (OPRM1) and delta 1 (OPRD1) opioid receptors: Luminescence-based cell-based high throughput dose response assay to identify agonists of OPRD1 homodimerization. [Related pubchem assays (depositor defined):AID504326, AID504355, AID504692, AID504904, AID504905]. The assay is classed as functional.
Sequence of Delta-type opioid receptor (P41143 whole entry): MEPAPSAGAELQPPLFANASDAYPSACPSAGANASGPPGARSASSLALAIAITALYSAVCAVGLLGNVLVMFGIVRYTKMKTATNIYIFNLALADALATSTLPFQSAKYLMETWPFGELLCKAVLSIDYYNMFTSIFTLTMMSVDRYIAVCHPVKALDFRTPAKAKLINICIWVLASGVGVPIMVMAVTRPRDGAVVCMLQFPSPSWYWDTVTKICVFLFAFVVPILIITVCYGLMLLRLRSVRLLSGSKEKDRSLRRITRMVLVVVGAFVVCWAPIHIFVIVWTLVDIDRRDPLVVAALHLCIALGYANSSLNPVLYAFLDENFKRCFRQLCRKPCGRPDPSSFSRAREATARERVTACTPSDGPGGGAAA

Assay [13] concerns the target COUP transcription factor 2 (Homo sapiens, UniProt P24468). Nature of the assay: Luminescence-based cell-based high throughput dose response assay to identify inhibitors of COUP-TFII (NR2F2). The assay is classed as functional.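 Also: HEK293 cells transiently cotransfected with COUP-TFII expression vector and reporter; luciferase reporter luminescence driven by COUP-TFII from the pX2-168 reporter plasmid.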
Assay [14] is described as follows: Trypanosoma cruzi growth suppression in host cells – NIH3T3 host cells, beta-gal luminescence, confirmation (AID 2044).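 Also: intracellular parasites grown in NIH/3T3 mouse fibroblasts as host cells; luminescent beta-galactosidase reporter signal from transgenic T. cruzi replicating inside host cells; inhibitors lower the luminescence signal.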 The class given is functional, cell-based.
In assay [15] the target is T4, Carboxy-terminal domain RNA polymerase II polypeptide A small phosphatase 1 (Homo sapiens, UniProt Q9GZU7).
T4 sequence (Q9GZU7 whole entry): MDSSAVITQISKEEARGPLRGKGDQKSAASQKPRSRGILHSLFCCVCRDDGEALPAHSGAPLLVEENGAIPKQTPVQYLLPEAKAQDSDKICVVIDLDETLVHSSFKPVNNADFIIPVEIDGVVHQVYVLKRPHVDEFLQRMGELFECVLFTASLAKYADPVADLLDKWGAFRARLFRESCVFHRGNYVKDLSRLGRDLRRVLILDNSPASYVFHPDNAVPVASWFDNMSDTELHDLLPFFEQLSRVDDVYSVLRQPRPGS
As to the kind of experiment: CTDSP1 inhibitors, concentration-response, biochemical, absorbance readout, ultra-high-throughput screen actives (AID 540297). The assay is classed as functional.

Assay [16] is described as follows: NIH3T3 cell viability loss – ATP luminescence, mouse fibroblasts, counter-screen, dose response (AID 2010).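 Also: cells exposed to compound for about 90 hours before reading.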 The class given is functional, cell-based.

Sequence of Ion channel NompC (Q7T1G6 whole entry): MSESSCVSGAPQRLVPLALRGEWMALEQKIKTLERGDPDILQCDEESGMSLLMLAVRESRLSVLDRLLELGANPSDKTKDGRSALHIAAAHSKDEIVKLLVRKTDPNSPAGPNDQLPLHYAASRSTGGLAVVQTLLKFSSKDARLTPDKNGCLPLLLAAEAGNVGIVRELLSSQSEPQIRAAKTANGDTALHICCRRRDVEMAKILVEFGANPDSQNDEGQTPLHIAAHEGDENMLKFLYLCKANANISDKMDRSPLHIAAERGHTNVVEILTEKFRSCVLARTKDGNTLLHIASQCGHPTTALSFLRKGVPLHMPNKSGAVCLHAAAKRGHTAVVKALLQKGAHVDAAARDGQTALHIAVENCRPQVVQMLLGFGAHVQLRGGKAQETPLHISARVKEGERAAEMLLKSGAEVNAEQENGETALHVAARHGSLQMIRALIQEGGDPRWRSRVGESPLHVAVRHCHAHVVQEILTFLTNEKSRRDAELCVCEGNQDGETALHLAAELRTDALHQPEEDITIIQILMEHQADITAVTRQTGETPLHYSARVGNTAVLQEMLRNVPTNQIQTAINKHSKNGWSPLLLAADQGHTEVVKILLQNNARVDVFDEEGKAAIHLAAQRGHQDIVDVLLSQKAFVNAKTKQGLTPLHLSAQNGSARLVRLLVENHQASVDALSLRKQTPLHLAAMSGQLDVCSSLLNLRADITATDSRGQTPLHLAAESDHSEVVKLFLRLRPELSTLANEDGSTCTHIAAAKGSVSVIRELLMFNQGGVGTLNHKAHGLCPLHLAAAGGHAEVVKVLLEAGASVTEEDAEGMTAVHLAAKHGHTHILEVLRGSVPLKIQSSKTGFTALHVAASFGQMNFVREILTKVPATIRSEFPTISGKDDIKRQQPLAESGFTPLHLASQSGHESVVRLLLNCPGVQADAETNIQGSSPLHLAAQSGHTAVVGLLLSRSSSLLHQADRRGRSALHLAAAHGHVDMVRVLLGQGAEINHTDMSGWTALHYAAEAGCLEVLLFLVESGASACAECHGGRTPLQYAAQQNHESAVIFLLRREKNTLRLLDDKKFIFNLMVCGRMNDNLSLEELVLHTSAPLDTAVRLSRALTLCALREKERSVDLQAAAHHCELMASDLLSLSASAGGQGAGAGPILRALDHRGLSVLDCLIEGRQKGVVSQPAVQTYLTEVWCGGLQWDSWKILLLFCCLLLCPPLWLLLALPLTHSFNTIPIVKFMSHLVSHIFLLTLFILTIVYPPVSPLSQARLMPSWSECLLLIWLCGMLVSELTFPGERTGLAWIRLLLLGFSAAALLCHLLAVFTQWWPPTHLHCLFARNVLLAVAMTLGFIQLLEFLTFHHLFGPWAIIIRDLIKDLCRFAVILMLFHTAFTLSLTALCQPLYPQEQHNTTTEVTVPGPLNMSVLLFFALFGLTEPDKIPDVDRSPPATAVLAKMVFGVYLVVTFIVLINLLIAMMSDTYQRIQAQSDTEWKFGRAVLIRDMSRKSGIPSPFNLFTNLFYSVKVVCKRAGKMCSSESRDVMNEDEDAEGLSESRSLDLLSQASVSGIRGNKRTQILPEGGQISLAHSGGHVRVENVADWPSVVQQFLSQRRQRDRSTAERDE
Sequence of COUP transcription factor 2 (P24468 whole entry): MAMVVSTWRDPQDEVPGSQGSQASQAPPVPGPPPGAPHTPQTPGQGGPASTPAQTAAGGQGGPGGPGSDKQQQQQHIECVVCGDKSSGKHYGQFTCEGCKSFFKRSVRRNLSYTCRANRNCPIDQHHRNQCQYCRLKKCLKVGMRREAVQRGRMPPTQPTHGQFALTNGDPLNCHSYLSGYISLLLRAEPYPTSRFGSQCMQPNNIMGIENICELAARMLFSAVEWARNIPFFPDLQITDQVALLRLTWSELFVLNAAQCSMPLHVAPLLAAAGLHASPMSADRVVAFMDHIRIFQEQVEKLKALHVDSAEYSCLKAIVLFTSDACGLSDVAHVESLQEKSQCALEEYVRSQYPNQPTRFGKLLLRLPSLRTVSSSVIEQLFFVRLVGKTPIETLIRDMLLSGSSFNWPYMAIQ

Turning to `COC(=O)c1c(NC(=O)Cc2cccs2)sc(C(=O)N2CCCCC2)c1C`, the EC50 in the assay with HEK293 [1] and with HEK293 [2] was > 59.7 µM (inactive) each time.

Usually AC50 stands for the concentration at which the activity in the assay is half-maximal. `Clc1ccc(CSc2nnc(-c3cccnc3)n2Cc2ccco2)c(Cl)c1`: the concentration at half-maximal activity (AC50) is 31.4 µM (active) in assay [3] and 28 µM (active) in [4].

Usually IC50 stands for the concentration that gives 50% inhibition. In the case of `CCOC(=O)N1CCC(NC(=O)C(NC(=O)C2CCC(C)CC2)C(C)CC)CC1` (centres undefined), the IC50 in assay [5] was > 100 µM (inactive); in assay [6], > 100 µM (not active).

What is called CC50 is the concentration giving 50% cytotoxicity. For `CC(C)c1nc2c(c(=O)c3ccccc3n2C)c(=O)n1CCc1ccccc1`, the EC50 on Ion channel NompC is 3.97 µM (active); at Mucolipin-3 it was 3.96 µM (active); in [7] it was 9.93 µM (active). In addition, the 50% cytotoxic concentration (CC50) in assay [8] is 36 µM (active). The concentration for half-maximal inhibition (IC50) in “cells” is 13.2 µM (active).

As to `O=c1oc(-c2ccccc2)nc2sc3c(c12)CCCC3`, the EC50 with H4 was 34.1 µM (active); in assay [9] it was 38.3 µM (active). The AC50 in the assay with Escherichia coli was 74.8 µM (active).

On to `Oc1ccc(Oc2ccc3c(C(F)(F)F)cc(C(F)(F)F)nc3n2)cc1`, for which the EC50 was > 92.5 µM (inactive) in assay [10], > 92.5 µM (inactive) at Mu-type opioid receptor, 3.15 µM (active) in [11] and > 92.5 µM (inactive) in [12]. Also, the IC50 in assay [13] was 28.2 µM (inactive).

On to `C/C(=N\NC(=O)c1cc(-c2cccc([N+](=O)[O-])c2)[nH]n1)c1ccccc1O`, for which the figures for the EC50 in assay [14] and in [16] were 2.18 µM (active) and 6.64 µM (active), respectively. The half-maximal inhibitory concentration (IC50) in assay [15] is 1.7 µM (active). Besides, the AC50 is 50.7 µM (active) in assay [3] and 2.35 µM (active) in [4].
